Values joined by “and” are separate entries in the source; they are usually repeats but may differ in a detail not shown here. Equal values may be shown once. Inconclusive results and toxic doses are left out.

In this assay the test system is L1210 leukemia ip in BDF1 mice, survival T/C. As to the kind of experiment: NCI In Vivo Anticancer Drug Screen. Data for tumor model L1210 Leukemia (intraperitoneal) in B6D2F1 (BDF1) mice. Particulars: endpoint: mean survival time, higher = longer survival. The procedure, abridged:
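Tumor was transplanted into mice, which were then dosed with test compound or vehicle alone. Survival was recorded for each group, and the treated figure was expressed relative to the control figure.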

Where [1] appears, read: dose: 100.0 mg/kg/injection, schedule: Q01DX009 (ip), vehicle: saline with Tween-80.
Setting [2] is: dose: 200.0 mg/kg/injection, schedule: Q01DX009 (ip), vehicle: saline with Tween-80.
Setting [3] is: dose: 400.0 mg/kg/injection, schedule: Q01DX009 (ip), vehicle: saline with Tween-80.
Setting [4] is: dose: 100.0 mg/kg/injection, schedule: Q01DX009 (ip), vehicle: Klucel (hydroxypropylcellulose) (HPC).
Where [5] appears, read: dose: 200.0 mg/kg/injection, schedule: Q01DX009 (ip), vehicle: Klucel (hydroxypropylcellulose) (HPC).
[6] abbreviates: dose: 400.0 mg/kg/injection, schedule: Q01DX009 (ip), vehicle: Klucel (hydroxypropylcellulose) (HPC).
Where [7] appears, read: dose: 50.0 mg/kg/injection, schedule: Q04DX003 (ip), vehicle: Klucel (hydroxypropylcellulose) (HPC).
Where [8] appears, read: dose: 100.0 mg/kg/injection, schedule: Q01DX001 (ip), vehicle: Klucel (hydroxypropylcellulose) (HPC).
Where [9] appears, read: dose: 100.0 mg/kg/injection, schedule: Q04DX003 (ip), vehicle: Klucel (hydroxypropylcellulose) (HPC).
The mark [10] stands for this setting: dose: 200.0 mg/kg/injection, schedule: Q01DX001 (ip), vehicle: Klucel (hydroxypropylcellulose) (HPC).
Where [11] appears, read: dose: 200.0 mg/kg/injection, schedule: Q04DX003 (ip), vehicle: Klucel (hydroxypropylcellulose) (HPC).
The mark [12] stands for this setting: dose: 400.0 mg/kg/injection, schedule: Q01DX001 (ip), vehicle: Klucel (hydroxypropylcellulose) (HPC).
Setting [13] is: dose: 100.0 mg/kg/injection, schedule: Q04DX003 (ip), vehicle: saline with Tween-80.
Where [14] appears, read: dose: 200.0 mg/kg/injection, schedule: Q04DX003 (ip), vehicle: saline with Tween-80.
Where [15] appears, read: dose: 100.0 mg/kg/injection, schedule: Q04DX002 (ip), vehicle: Klucel (hydroxypropylcellulose) (HPC).
The mark [16] stands for this setting: dose: 200.0 mg/kg/injection, schedule: Q04DX002 (ip), vehicle: Klucel (hydroxypropylcellulose) (HPC).
Setting [17] is: dose: 400.0 mg/kg/injection, schedule: Q04DX002 (ip), vehicle: Klucel (hydroxypropylcellulose) (HPC).
The mark [18] stands for this setting: dose: 400.0 mg/kg/injection, schedule: Q04DX003 (ip), vehicle: Klucel (hydroxypropylcellulose) (HPC).
[19] abbreviates: dose: 400.0 mg/kg/injection, schedule: Q04DX003 (ip), vehicle: saline with Tween-80.

For `Nc1ccc(Br)cc1`, the T/C is, setting by setting: under setting [1], 100 % of control; under setting [2], 95 % of control; under setting [3], 99 % of control.
Consider `Cc1ccc([N+](=O)[O-])cc1NC(=O)N(C(C)C)C1CCCCC1`, for which the T/C reads like this: under setting [4], 106 % of control; under setting [5], 95 % of control; under setting [6], 106 % of control.
For `O=C(C[n+]1ccccc1)c1ccc(Br)cc1`, the T/C (dose: 50.0 mg/kg/injection, schedule: Q01DX009 (ip), vehicle: saline) was 101 % of control; the T/C (dose: 100.0 mg/kg/injection, schedule: Q01DX001 (ip), vehicle: saline) is 101 % of control; the T/C (dose: 100.0 mg/kg/injection, schedule: Q01DX009 (ip), vehicle: saline) was 105 % of control.
Turning to `NC(=O)c1ccccc1N=NN(CCF)CCF`, the T/C (dose: 6.25 mg/kg/injection, schedule: Q01DX009 (ip), vehicle: Klucel (hydroxypropylcellulose) (HPC)) is 120 % of control; the T/C (dose: 6.25 mg/kg/injection, schedule: Q04DX003 (ip), vehicle: Klucel (hydroxypropylcellulose) (HPC)) was 112 % of control; the T/C (dose: 12.0 mg/kg/injection, schedule: Q04DX003 (ip), vehicle: Klucel (hydroxypropylcellulose) (HPC)) was 153 % of control; the T/C (dose: 12.5 mg/kg/injection, schedule: Q01DX001 (ip), vehicle: Klucel (hydroxypropylcellulose) (HPC)) is 106 % of control; the T/C (dose: 12.5 mg/kg/injection, schedule: Q04DX003 (ip), vehicle: Klucel (hydroxypropylcellulose) (HPC)) was 156 % of control; the T/C (dose: 25.0 mg/kg/injection, schedule: Q01DX001 (ip), vehicle: Klucel (hydroxypropylcellulose) (HPC)) is 113 % of control. The T/C (dose: 25.0 mg/kg/injection, schedule: Q04DX003 (ip), vehicle: Klucel (hydroxypropylcellulose) (HPC)) was 104 % of control.
In the case of `Nc1ccc([N+](=O)[O-])c2ccccc12`, the T/C (dose: 50.0 mg/kg/injection, schedule: Q01DX001 (ip), vehicle: carboxymethylcellulose (CMC)) is 87 % of control; the T/C (dose: 100.0 mg/kg/injection, schedule: Q01DX001 (ip), vehicle: carboxymethylcellulose (CMC)) was 93 % of control; the T/C (dose: 200.0 mg/kg/injection, schedule: Q01DX001 (ip), vehicle: carboxymethylcellulose (CMC)) is 98 % of control; the T/C (dose: 400.0 mg/kg/injection, schedule: Q01DX001 (ip), vehicle: carboxymethylcellulose (CMC)) is 87 % of control.
Turning to `O/N=C/c1ccc(Cl)cc1Cl`, the T/C is, setting by setting: under setting [7], 97 % of control; under setting [8], 94 % of control; under setting [9], 95 % of control; under setting [10], 97 % of control; under setting [11], 97 % of control; under setting [12], 102 % of control.
On to `O=C(CCN1CC=C(c2ccccc2)CC1)c1ccc(Oc2ccccc2)cc1`, for which the T/C (dose: 50.0 mg/kg/injection, schedule: Q01DX009 (ip), vehicle: saline with Tween-80) was 100 % of control; the T/C under setting [1] is 96 % of control; the T/C under setting [13] was 96 % of control; the T/C under setting [2] was 105 % of control; the T/C under setting [14] was 94 % of control.
For the compound `CCCCCCCCCCCCCCCCCC(=O)OC(C(O)C=O)C(O)C(O)CO` (stereo not drawn), the T/C runs as follows: under setting [15], 95 % of control; under setting [16], 109 % of control; under setting [17], 95 % of control.
Consider `COc1ccccc1C(O)c1cnc(C)n1Cc1ccccc1` (stereo not drawn), for which the T/C under setting [8] is 113 % of control; the T/C under setting [4] was 96 % of control and 97 % of control; the T/C under setting [15] was 96 % of control and 98 % of control; the T/C under setting [9] was 92 % of control; the T/C under setting [10] was 100 % of control; the T/C under setting [5] is 96 % of control and 103 % of control. Besides, the T/C was 98 % of control and 92 % of control under setting [16]; 92 % of control under setting [11]; 95 % of control under setting [12]; 93 % of control and 97 % of control under setting [6]; 95 % of control and 92 % of control under setting [17]; 95 % of control under setting [18].
As for `COc1ccc(C(O)c2nnc(C(O)c3ccc(OC)cc3)nn2)cc1` (stereo not drawn), the T/C by setting is: under setting [1], 96 % of control; under setting [15], 103 % of control; under setting [2], 96 % of control; under setting [16], 90 % of control; under setting [3], 86 % of control; under setting [17], 100 % of control.
Take `ClCCOCCOCCOCCCl`: the T/C is 97 % of control (dose: 75.0 mg/kg/injection, schedule: Q01DX009 (ip), vehicle: saline with Tween-80); 97 % of control under setting [13]; 93 % of control (dose: 150.0 mg/kg/injection, schedule: Q01DX009 (ip), vehicle: saline with Tween-80); 106 % of control under setting [14]; 93 % of control (dose: 300.0 mg/kg/injection, schedule: Q01DX009 (ip), vehicle: saline with Tween-80); 102 % of control under setting [19].
With `CN(C)C1C(=O)C(C(=O)NCNC(CCS)C(=O)O)=C(O)C2(O)C(=O)C3=C(O)c4c(O)cccc4C(C)(O)C3CC12` (stereo not drawn), the T/C is 104 % of control (dose: 20.0 mg/kg/injection, schedule: Q01DX Z (ip), vehicle: saline); 98 % of control (dose: 40.0 mg/kg/injection, schedule: Q01DX Z (ip), vehicle: saline); 96 % of control and 100 % of control (dose: 80.0 mg/kg/injection, schedule: Q01DX Z (ip), vehicle: saline); 98 % of control and 101 % of control (dose: 160.0 mg/kg/injection, schedule: Q01DX Z (ip), vehicle: saline); 100 % of control (dose: 320.0 mg/kg/injection, schedule: Q01DX Z (ip), vehicle: saline).
With `Nc1ccc(SCCCCCCSc2ccc(N)cc2)cc1`, the T/C (dose: 100.0 mg/kg/injection, schedule: Q04DX003 (ip), vehicle: other) was 94 % of control.
As for `NC(Cc1ccccc1)c1nn[nH]n1` (stereo not drawn), the T/C (dose: 55.0 mg/kg/injection, schedule: Q01DX Z (ip), vehicle: methylcellulose (MC)) was 93 % of control and the T/C (dose: 83.0 mg/kg/injection, schedule: Q01DX Z (ip), vehicle: methylcellulose (MC)) is 110 % of control.
With `Nc1ncnc2nc(N=Nc3ccc(S(=O)(=O)N(CCCl)CCCl)cc3)[nH]c12`, the T/C under setting [7] was 93 % of control; the T/C under setting [9] was 88 % of control and 91 % of control; the T/C under setting [11] was 96 % of control.
As for `COC(=O)c1c2c(nc3ccccc13)-c1ccccc1C(C)(C)C2OC` (stereo not drawn), the T/C reads like this: under setting [9], 113 % of control; under setting [11], 102 % of control; under setting [18], 101 % of control.
In the case of `CC(O)Cc1c(Cc2ccccc2)nc(N)[nH]c1=O` (stereo not drawn), the T/C reads like this: (dose: 100.0 mg/kg/injection, schedule: Q04DX003 (ip), vehicle: saline) 96 % of control; (dose: 200.0 mg/kg/injection, schedule: Q04DX003 (ip), vehicle: saline) 97 % of control; (dose: 400.0 mg/kg/injection, schedule: Q04DX003 (ip), vehicle: saline) 92 % of control.
Consider `O=[N+]([O-])c1ccc(/C=C\c2ccc(Cl)cc2S(=O)(=O)F)c(Cl)c1`, for which the T/C was 97 % of control (dose: 100.0 mg/kg/injection, schedule: Q01DX009 (ip), vehicle: saline sonified); 102 % of control under setting [13]; 97 % of control (dose: 200.0 mg/kg/injection, schedule: Q01DX009 (ip), vehicle: saline sonified); 96 % of control under setting [14]; 96 % of control (dose: 400.0 mg/kg/injection, schedule: Q01DX009 (ip), vehicle: saline sonified); 100 % of control under setting [19].
Take `COC(=O)/C=C\C(=O)OC`: the T/C was 95 % of control under setting [9], 100 % of control under setting [11] and 100 % of control under setting [18].
For the compound `O=C(NC1CCCCC1)Oc1ccc(-c2ccccc2)cc1Cl`, the T/C under setting [4] is 101 % of control; the T/C under setting [9] is 111 % of control; the T/C under setting [5] was 107 % of control; the T/C under setting [11] was 104 % of control; the T/C under setting [6] was 98 % of control; the T/C under setting [18] was 98 % of control.
Take `Cc1cccc(NNC(=S)Nc2ccccc2)c1`: the T/C by setting is: under setting [1], 97 % of control; under setting [2], 97 % of control; under setting [3], 94 % of control.

Source of the values: PubChem BioAssay AID248 (DTP/NCI, 2004).
